Results on 14 compounds are retold here after US10954287B2, “Ras binding peptides and methods of use” (Ra Pharmaceuticals, Inc., priority 2016, dated 2021).

As usually defined, the IC50 is the concentration that gives 50% inhibition.

Where a SMILES comes first, the peptide text is derived from it. Bridges are numbered along the chain shown (N, C = ends). [ ]: non-standard residue; d: D form. The star is where a group is joined. 4‑(dimethylamino)benzoyl‑d4 = DMABZK2: N6-(4-(dimethylamino)benzoyl-2,3,5,6-d4)-L-lysine, [2H]c1c([2H])c(N(C)C)c([2H])c([2H])c1C(=O)*; ADTZPA = (S)-2-amino-3-(1-dodecyl-1H-1,2,3-triazol-4-yl)propanoic acid; m‑xylylene = m-xylylene thioether bridge between Cys; Trp(7-aza) = N[C@@H](Cc1c[nH]c2ncccc12)C(=O)O; NMePhe(4-F) = CN[C@@H](Cc1ccc(F)cc1)C(=O)O; PEG4 = NCCOCCOCCOCCOCCC(=O)O; Phg = N[C@H](C(=O)O)c1ccccc1; Tle = CC(C)(C)[C@H](N)C(=O)O; NMeA = CN[C@@H](C)C(=O)O; Pra = C#CC[C@H](N)C(=O)O; Nva = CCC[C@H](N)C(=O)O; AEEA = NCCOCCOCC(=O)O; PEG1 = NCCOCCC(=O)O; Ava = NCCCCC(=O)O; Sar = CNCC(=O)O

The assay deals with GMPPNP-loaded H-Ras or GTP-loaded K-Ras. Kind of assay: Fluorescence polarization competition assay with TAMRA-labeled probe R4007. It is filed as binding, human. Particulars: 120 nM Ras, 30 nM probe R4007, 60 minutes at room temperature; read-out: Probe displacement (nM IC50). The protocol: R4000 was evaluated for competition with a TAMRA labeled probe (R4007) based on peptide R4000. The assay was performed in 384-well black, non-binding plates (Greiner Bio-One, Monroe, N.C.). GMPPNP-loaded H-Ras or GTP-loaded K-Ras, diluted in FP assay buffer (20 mM Tris-HCl, pH 7.5, 50 mM NaCl, 5 mM MgCl2, 1 mM EDTA, 0.002% Triton-X-100) for a final concentration of 120 nM was incubated with 30 nM R4007 for 20 minutes at room temperature. R4000 was serially diluted, added to the assay and incubated for 60 minutes at room temperature. Fluorescence polarization was detected with a SpectraMax Paradigm plate reader (Molecular Devices, Sunnyvale, Calif.) using the Rhodamine FP detection cartridge (535 nm/595 nm). Data was analyzed using GraphPad Prism and Ki determined using One Site Ki Curve fitting model.
Peptides were evaluated for competition with R4007, a probe consisting of TAMRA-labeled R4000, using a fluorescence polarization (FP) competition assay. The assay was performed in 384-well black, non-binding plates (Greiner Bio-One, Monroe, N.C.). GMPPNP-loaded H-Ras or GTP- loaded K-Ras, diluted in FP assay buffer (20 mM Tris-HCl, pH 7.5, 50 mM NaCl, 5 mM MgCl2, 1 mM EDTA, 0.002% Triton-X-100) for a final concentration of 120 nM was incubated with 30 nM probe for 20 minutes at room temperature. Peptides were serially diluted, added to the assay and incubated for 60 minutes at room temperature. Fluorescence was detected with a SpectraMax Paradigm plate reader (Molecular Devices, Sunnyvale, Calif.) using the Rhodamine FP detection cartridge (535 nm/595 nm). Data was analyzed and Ki determined using a One Site Ki Curve fitting model. Percent inhibition for each data point was calculated relative to the maximal binding in test compound-free control wells (showing no probe displacement) and Ras-free control wells (showing no probe binding) and the half-maximal inhibitory concentration (IC50), based on probe displacement, was determined.
In general terms: In fluorescence polarisation assays a small probe gives low polarisation when free and higher when bound to something large.
As to `CCC[C@H](NC(C)=O)C(=O)N[C@H]1CSCc2cccc(c2)CSC[C@@H](C(N)=O)NC(=O)[C@H](Cc2c[nH]cn2)NC(=O)[C@H](CCC)NC(=O)[C@H](Cc2c[nH]c3ncccc23)NC(=O)[C@H](CCC(=O)O)NC(=O)[C@H](Cc2c[nH]c3ncccc23)NC(=O)[C@H](Cc2c[nH]c3ncccc23)NC(=O)[C@H]([C@@H](C)O)NC(=O)[C@H](Cc2c[nH]cn2)NC(=O)[C@H](Cc2ccc(O)cc2)NC(=O)[C@H](C(C)(C)C)NC1=O` (relative stereo) [Compound R4100, ACE-NVA-CYS*-TBG-TYR-HIS-THR-7AW-7AW-GLU-7AW-NVA-HIS-CYS*-NH2], the IC50 amounted to 1.06 nM. As to `C#CC[C@@H]1NC(=O)CN(C)C(=O)[C@H](Cc2ccc(F)cc2)N(C)C(=O)[C@H](Cc2ccc(O)cc2)NC(=O)[C@H](Cc2c[nH]c3ncccc23)NC(=O)[C@H](c2ccccc2)NC(=O)[C@H](C)N(C)C(=O)[C@H](Cc2c[nH]cn2)NC(=O)[C@H](CCCCN)NC(=O)[C@H](C(C)(C)C)NC(=O)[C@H](Cc2ccc(O)cc2)NC(=O)CCCCNC1=O` [Compound R4128, APA*-TYR-TBG-LYS-HIS-NMA-PHG-7AW-TYR-MFF-SAR-PRG*] (cyclo([Ava]Y[Tle]KH[NMeA][Phg][Trp(7-aza)]Y[NMePhe(4-F)][Sar][Pra])), the IC50 turned out to be 215 nM. For `C#CC[C@@H]1NC(=O)CN(C)C(=O)[C@H](Cc2ccc(F)cc2)N(C)C(=O)[C@H](Cc2ccc(O)cc2)NC(=O)[C@H](Cc2c[nH]c3ncccc23)NC(=O)[C@H](c2ccccc2)NC(=O)[C@H](C)N(C)C(=O)[C@H](Cc2c[nH]cn2)NC(=O)[C@H](CCCCN)NC(=O)[C@H](C(C)(C)C)NC(=O)[C@H](Cc2ccc(O)cc2)NC(=O)CCOCCNC1=O` [Compound R4139, AEP*-TYR-TBG-LYS-HIS-NMA-PHG-7AW-TYR-MFF-SAR-PRG*] (cyclo([PEG1]Y[Tle]KH[NMeA][Phg][Trp(7-aza)]Y[NMePhe(4-F)][Sar][Pra])), the IC50 is 522 nM. Consider `CCC[C@H](NC(C)=O)C(=O)N[C@H]1CSCc2cccc(c2)CSC[C@@H](C(N)=O)NC(=O)CN(C)C(=O)[C@H](Cc2ccc(F)cc2)N(C)C(=O)[C@H](Cc2ccc(O)cc2)NC(=O)[C@H](Cc2c[nH]c3ncccc23)NC(=O)[C@H](c2ccccc2)NC(=O)[C@H](C)N(C)C(=O)[C@H](C)NC(=O)[C@H](CCCCN)NC(=O)[C@H](C(C)(C)C)NC(=O)[C@H](Cc2ccc(O)cc2)NC1=O` (relative stereo) [Compound R4126, ACE-NVA-CYS*-TYR-TBG-LYS-ALA-NMA-PHG-7AW-TYR-MFF-SAR-CYS*-NH2], for which the IC50 was 127 nM. For the compound `C=CC(=O)NC[C@@H]1NC(=O)[C@H](C)NC(=O)[C@H](C(C)(C)C)NC(=O)[C@H](Cc2ccc(O)cc2)NC(=O)[C@@H](NC(=O)[C@H](CCC)NC(C)=O)CSCc2cccc(c2)CSC[C@@H](C(N)=O)NC(=O)CN(C)C(=O)[C@H](Cc2ccc(F)cc2)N(C)C(=O)[C@H](Cc2ccc(O)cc2)NC(=O)[C@H](Cc2c[nH]c3ncccc23)NC(=O)[C@H](c2ccccc2)NC(=O)[C@H](C)N(C)C1=O` (relative stereo) [Compound R4136, ACE-NVA-CYS*-TYR-TBG-ALA-DABAC2-NMA-PHG-7AW-TYR-MFF-SAR-CYS*-NH2], the IC50 was found to be 392 nM. For `CCC[C@H](NC(C)=O)C(=O)N[C@H]1CSCc2cccc(c2)CSC[C@@H](C(N)=O)NC(=O)CN(C)C(=O)[C@H](Cc2ccc(F)cc2)N(C)C(=O)[C@H](Cc2ccc(O)cc2)NC(=O)[C@H](Cc2c[nH]c3ccccc23)NC(=O)[C@H](c2ccccc2)NC(=O)[C@H](C)N(C)C(=O)[C@H](Cc2c[nH]cn2)NC(=O)[C@H](CCCCN)NC(=O)[C@H](C(C)(C)C)NC(=O)[C@H](Cc2ccc(O)cc2)NC1=O` (relative stereo) [Compound R4115, ACE-NVA-CYS*-TYR-TBG-LYS-HIS-NMA-PHG-TRP-TYR-MFF-SAR-CYS*-NH2], the IC50 is 34.1 nM. To `CCC[C@H](NC(C)=O)C(=O)N[C@H]1CSCc2cccc(c2)CSC[C@@H](C(N)=O)NC(=O)CN(C)C(=O)[C@H](Cc2ccc(F)cc2)N(C)C(=O)[C@H](Cc2ccc(O)cc2)NC(=O)[C@H](Cc2c[nH]c3ncccc23)NC(=O)[C@H](c2ccccc2)NC(=O)[C@H](C)N(C)C(=O)[C@H](CCN)NC(=O)[C@H](C)NC(=O)[C@H](C(C)(C)C)NC(=O)[C@H](Cc2ccc(O)cc2)NC1=O` (relative stereo) [Compound R4140, ACE-NVA-CYS*-TYR-TBG-ALA-DBA-NMA-PHG-7AW-TYR-MFF-SAR-CYS*-NH2] belongs 608 nM; to `C#CC[C@@H]1NC(=O)CN(C)C(=O)[C@H](Cc2ccc(F)cc2)N(C)C(=O)[C@H](Cc2ccc(O)cc2)NC(=O)[C@H](Cc2c[nH]c3ncccc23)NC(=O)[C@H](c2ccccc2)NC(=O)[C@H](C)N(C)C(=O)[C@H](Cc2c[nH]cn2)NC(=O)[C@H](CCCCN)NC(=O)[C@H](C(C)(C)C)NC(=O)[C@H](Cc2ccc(O)cc2)NC(=O)COCCOCCNC1=O` [Compound R4130, PEG1*-TYR-TBG-LYS-HIS-NMA-PHG-7AW-TYR-MFF-SAR-PRG*] (cyclo([AEEA]Y[Tle]KH[NMeA][Phg][Trp(7-aza)]Y[NMePhe(4-F)][Sar][Pra])), 268 nM. For the compound `CCC[C@H](NC(=O)CCCC(=O)O)C(=O)N[C@H]1CSCc2cccc(c2)CSC[C@@H](C(N)=O)NC(=O)CN(C)C(=O)[C@H](Cc2ccc(F)cc2)N(C)C(=O)[C@H](Cc2ccc(O)cc2)NC(=O)[C@H](Cc2c[nH]c3ncccc23)NC(=O)[C@H](c2ccccc2)NC(=O)[C@H](C)N(C)C(=O)[C@H](Cc2c[nH]cn2)NC(=O)[C@H](CCCCNC(CC(C)C)=C2C(=O)CC(C)(C)CC2=O)NC(=O)[C@H](C(C)(C)C)NC(=O)[C@H](Cc2ccc(O)cc2)NC1=O` (relative stereo) [Compound R4138, GLA-NVA-CYS*-TYR-TBG-LYS-(DDE)-HIS-NMA-PHG-7AW-TYR-MFF-SAR-CYS*-NH2], the IC50 is 461 nM.

As to “ACE-NVA-CYS*-TYR-TBG-LYS-HIS-NMA-PHG-7AW-TYR-MFF-SAR-CYS*-PEG4PA-ADTZPA-NH2 (Ac-[Nva]CY[Tle]KH[NMeA][Phg][Trp(7-aza)]Y[NMePhe(4-F)][Sar]C-{PEG4-ADTZPA-NH2}; linker 2-13 via m‑xylylene) [Compound R4147, cyclized by a m-xylylene thioether bridge]”, the IC50 amounted to 5190 nM. To `C=CC(=O)NCCCC[C@@H]1NC(=O)[C@H](C)NC(=O)[C@H](C(C)(C)C)NC(=O)[C@H](Cc2ccc(O)cc2)NC(=O)[C@@H](NC(=O)[C@H](CCC)NC(C)=O)CSCc2cccc(c2)CSC[C@@H](C(N)=O)NC(=O)CN(C)C(=O)[C@H](Cc2ccc(F)cc2)N(C)C(=O)[C@H](Cc2ccc(O)cc2)NC(=O)[C@H](Cc2c[nH]c3ncccc23)NC(=O)[C@H](c2ccccc2)NC(=O)[C@H](C)N(C)C1=O` (relative stereo) [Compound R4123, ACE-NVA-CYS*-TYR-TBG-ALA-KAC-NMA-PHG-7AW-TYR-MFF-SAR-CYS*-NH2] belongs 85 nM; to “ACE-NVA-CYS*-TYR-TBG-DMABZK2-HIS-NMA-PHG-7AW-TYR-MFF-SAR-CYS*-NH2 (Ac-[Nva]CY[Tle]K(4‑(dimethylamino)benzoyl‑d4)H[NMeA][Phg][Trp(7-aza)]Y[NMePhe(4-F)][Sar]C-NH2; linker 2-13 via m‑xylylene) [Compound R4150, cyclized by a m-xylylene thioether bridge]”, 7640 nM; to `CCC[C@H](NC(C)=O)C(=O)N[C@H]1CSCc2cccc(c2)CSC[C@@H](C(=O)NCC(=O)NCC(=O)NCC(=O)N[C@@H](CS)C(=O)N[C@H](C(=O)N[C@H](C(=O)N[C@@H](CCSC)C(=O)O)[C@@H](C)CC)C(C)C)NC(=O)CN(C)C(=O)[C@H](C)N(C)C(=O)[C@H](Cc2ccc(O)cc2)NC(=O)[C@H](Cc2c[nH]c3ncccc23)NC(=O)[C@H](C)NC(=O)[C@H](C)N(C)C(=O)[C@H](Cc2c[nH]cn2)NC(=O)[C@H](CCCCN)NC(=O)[C@H](C(C)(C)C)NC(=O)[C@H](Cc2ccc(O)cc2)NC1=O` (relative stereo) [Compound R4143, ACE-NVA-CYS*-TYR-TBG-LYS-HIS-NMA-ALA-7AW-TYR-NMA-SAR-CYS*-GLY-GLY-GLY-CYS-VAL-ILE-MET], 1640 nM. To `CCC[C@H](NC(C)=O)C(=O)N[C@H]1CSCc2cccc(c2)CSC[C@@H](C(=O)N[C@H](CO)C(=O)N[C@@H](CCCCN)C(=O)NCC(=O)N[C@@H](CS)C(=O)N[C@H](C(=O)N[C@H](C(=O)N[C@@H](CCSC)C(=O)O)[C@@H](C)CC)C(C)C)NC(=O)CN(C)C(=O)[C@H](Cc2ccc(F)cc2)N(C)C(=O)[C@H](Cc2ccc(O)cc2)NC(=O)[C@H](Cc2c[nH]c3ncccc23)NC(=O)[C@H](c2ccccc2)NC(=O)[C@H](C)N(C)C(=O)[C@H](Cc2c[nH]cn2)NC(=O)[C@H](CCCCN)NC(=O)[C@H](C(C)(C)C)NC(=O)[C@H](Cc2ccc(O)cc2)NC1=O` (relative stereo) [Compound R4105, ACE-NVA-CYS*-TYR-TBG-LYS-HIS-NMA-PHG-7AW-TYR-MFF-SAR-CYS*-DSER-LYS-GLY-CYS-VAL-ILE-MET] belongs 3.31 nM.
